The assay has as its system M17-SYNwt cells. Nature of the assay: α-synuclein cytotoxicity assay (LDH leakage from paraquat-treated α-synuclein over-expressing neuroblastoma cells). It is filed as cell-based, human. As to conditions: paraquat 32 mM, 40 hours, LDH release; for EC50: Homo sapiens, Neuroblastoma cell, 10 point curves in duplicate; for %I: percent inhibition of synuclein cytotoxicity at most effective concentration of test compound, relative to untreated paraquat cells. The gist of the method: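 M17 neuroblastoma cells over-expressing wild-type α-synuclein were challenged with paraquat, and cytotoxicity was read as LDH release. Protection was expressed as percent reduction of paraquat-induced LDH release relative to untreated paraquat cells and control cells. Actives were retested in 10-point duplicate dose responses.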

≈ marks a conversion by molar mass, not a printed value.

Broadly, the EC50 is the concentration at which the effect is half-maximal. A low value points to a more potent agent. As to `Cc1ccc(Cc2nsc(N3CCN(C(=O)c4ccc(F)cc4)CC3)n2)cc1` [Compound 160, 1-(4-fluorobenzoyl)-4-[3-(4-methylbenzyl)-1,2,4-thiadiazol-5-yl]piperazine], the response was half-maximal at 2.87 µg/mL (≈ 7.24 µM) (EC50) and the “%I” value is 88%. On the same counts, the results for `Cc1ccc(Cc2nsc(N3CCN(C(=O)c4ccc5c(c4)OCO5)C(C)C3)n2)cc1` (centres unmarked) [Compound 161, 1-(1,3-benzodioxol-5-ylcarbonyl)-4-[3-(4-methylbenzyl)-1,2,4-thiadiazol-5-yl]-2-methyl+B176piperazine] are 3.36 µg/mL (≈ 7.7 µM) and 101%. On to `Cc1ccc(Cc2nsc(N3CCN(C(=O)c4cccc(F)c4)CC3)n2)cc1` [Compound 162, 1-(3-flurorbenzoyl)-4-[3-(4-methylbenzyl)-1,2,4-thiadiazol-5-yl]piperazine], for which the midpoint of the response, the EC50, lay at 3.4 µg/mL (≈ 8.58 µM) and the “%I” value is 101%. Regarding `O=C(c1ccc(F)cc1)N1CCN(c2nc(Cc3ccccc3)ns2)CC1` [Compound 163, 1-(4-fluorobenzoyl)-4-[3-benzyl-1,2,4-thiadiazol-5-yl]piperazine], the response was half-maximal at 3.61 µg/mL (≈ 9.44 µM) (EC50) and the “%I” value is on record as 67%. On to `Cc1ccc(Cc2nsc(N3CCN(C(=O)c4ccc(Br)cc4)CC3)n2)cc1` [Compound 164, 1-(4-bromobenzoyl)-4-[3-(4-methylbenzyl)-1,2,4-thiadiazol-5-yl]piperazine], for which the EC50 amounted to 3.86 µg/mL (≈ 8.44 µM) and the “%I” value was found to be 60%. In the case of `CCc1ccc(C(=O)N2CCN(c3nc(Cc4ccc(Cl)cc4)ns3)CC2)cc1` [Compound 165, 1-(4-ethylbenzoyl)-4-[3-(4-chlorobenzyl)-1,2,4-thiadiazol-5-yl]piperazine], the “%I” value was 133%.

Regarding `CC1CN(c2nc(Cc3ccc(F)cc3)ns2)CCN1C(=O)c1ccccc1Cl` (centres unmarked) [Compound 166, 1-(2-chlorobenzoyl)-4-[3-(4-fluorobenzyl)-1,2,4-thiadiazol-5-yl]-2-methylpiperazine], the “%I” value was found to be 123%. As for `CC1CN(c2nc(Cc3ccc(Cl)cc3)ns2)CCN1C(=O)c1ccccc1F` (centres unmarked) [Compound 167, 1-(2-fluorobenzoyl)-4-[3-(4-chlorobenzyl)-1,2,4-thiadiazol-5-yl]-2-methylpiperazine], the “%I” value is 117%. Same read-out and setting: with `COc1cccc(Cc2nsc(N3CCN(C(=O)c4ccc(C(F)(F)F)cc4)C(C)C3)n2)c1` (centres unmarked) [Compound 168, 1-(4-trifluoromethylbenzoyl)-4-[3-(3-methoxybenzyl)-1,2,4-thiadiazol-5-yl]-2-methylpiperazine] the figure was 91%. As for `Cc1ccc(Cc2nsc(N3CCN(C(=O)c4ccccc4)C(C)C3)n2)cc1` (centres unmarked) [Compound 169, 1-benzoyl-4-[3-(4-methylbenzyl)-1,2,4-thiadiazol-5-yl]-2-methylpiperazine], the “%I” value worked out at 91%.

In the case of `COc1cccc(Cc2nsc(N3CCN(C(=O)c4ccc(Br)cc4)C(C)C3)n2)c1` (centres unmarked) [Compound 170, 1-(4-bromobenzoyl)-4-[3-(3-methoxybenzyl)-1,2,4-thiadiazol-5-yl]-2-methylpiperazine], the “%I” value is 89%. Same read-out and setting: in the case of `Cc1ccc(Cc2nsc(N3CCN(C(=O)c4ccc(C(F)(F)F)cc4)CC3)n2)cc1` [Compound 171, 1-(4-trifluoromethylbenzoyl)-4-[3-(4-methylbenzyl)-1,2,4-thiadiazol-5-yl]piperazine] it was 86%. The same measure, in the same setting: with `Cc1ccc(C(=O)N2CCN(c3nc(Cc4ccc(F)cc4)ns3)CC2C)cc1[N+](=O)[O-]` (centres unmarked) [Compound 172, 1-(3-nitro-4-methylbenzoyl)-4-[3-(4-fluorobenzyl)-1,2,4-thiadiazol-5-yl]-2-methylpiperazine] the figure was 86%; with `COc1cccc(Cc2nsc(N3CCN(C(=O)c4ccccc4)C(C)C3)n2)c1` (centres unmarked) [Compound 173, 1-benzoyl-4-[3-(3-methoxybenzyl)-1,2,4-thiadiazol-5-yl]-2-methylpiperazine], 85%; with `COc1cccc(Cc2nsc(N3CCN(C(=O)c4ccc(Cl)cc4)C(C)C3)n2)c1` (centres unmarked) [Compound 174, 1-(4-chlorobenzoyl)-4-[3-(3-methoxybenzyl)-1,2,4-thiadiazol-5-yl]-2-methylpiperazine], 83%. The same measure, in the same setting: with `Cc1ccc(Cc2nsc(N3CCN(C(=O)c4ccccc4F)CC3)n2)cc1` [Compound 175, 1-(2-fluorobenzoyl)-4-[3-(4-methylbenzyl)-1,2,4-thiadiazol-5-yl]piperazine] the figure was 78%. Turning to `CCCCCCc1ccc(C(=O)N2CCN(c3nc(Cc4ccc(C)cc4)ns3)CC2)cc1` [Compound 176, 1-(4-hexylbenzoyl)-4-[3-(4-methylbenzyl)-1,2,4-thiadiazol-5-yl]piperazine], the “%I” value is given as 77%. Still for that read-out and setting: with `CC1CN(c2nc(Cc3ccc(F)cc3)ns2)CCN1C(=O)c1ccc([N+](=O)[O-])cc1Cl` (centres unmarked) [Compound 177, 1-(2-chloro-4-nitrobenzoyl)-4-[3-(4-fluorobenzyl)-1,2,4-thiadiazol-5-yl]-2-methylpiperazine] the figure was 77%. Take `CC1CN(c2nc(Cc3ccc(F)cc3)ns2)CCN1C(=O)c1ccc2c(c1)OCO2` (centres unmarked) [Compound 178, 1-(1,3-benzodioxol-5-ylcarbonyl)-4-[3-(4-fluorobenzyl)-1,2,4-thiadiazol-5-yl]-2-methylpiperazine]: the “%I” value is recorded as 68%.

In the case of `CC1CN(c2nc(Cc3ccc(F)cc3)ns2)CCN1C(=O)c1cccc(F)c1` (centres unmarked) [Compound 179, 1-(3-fluorobenzoyl)-4-[3-(4-fluorobenzyl)-1,2,4-thiadiazol-5-yl]-2-methylpiperazine], the “%I” value is on record as 68%.

Turning to `CC(C)(C)c1ccc(C(=O)N2CCN(c3nc(Cc4ccc(F)cc4)ns3)CC2)cc1` [Compound 180, 1-(4-tert-butylbenzoyl)-4-[3-(4-fluorobenzyl)-1,2,4-thiadiazol-5-yl]piperazine], the “%I” value was determined as 62%. Regarding `O=C(c1ccccc1)N1CCN(c2nc(Cc3ccc(F)cc3)ns2)CC1` [Compound 181, 1-benzoyl-4-[3-(4-fluorobenzyl)-1,2,4-thiadiazol-5-yl]piperazine], the “%I” value worked out at 60%. Regarding `CCCCc1ccc(C(=O)N2CCN(c3nc(Cc4ccc(C)cc4)ns3)CC2)cc1` [Compound 182, 1-(4-butylbenzoyl)-4-[3-(4-methylbenzyl)-1,2,4-thiadiazol-5-yl]piperazine], the “%I” value turned out to be 57%.

With `Cc1ccc(Cc2nsc(N3CCN(C(=O)c4ccc(C(C)(C)C)cc4)CC3)n2)cc1` [Compound 183, 1-(4-tert-butylbenzoyl)-4-[3-(4-methylbenzyl)-1,2,4-thiadiazol-5-yl]piperazine], the “%I” value was 52%. Same read-out and setting: in the case of `CC1CN(c2nc(Cc3ccc(F)cc3)ns2)CCN1C(=O)c1ccc([N+](=O)[O-])cc1` (centres unmarked) [Compound 184, 1-(4-nitrobenzoyl)-4-[3-(4-fluorobenzyl)-1,2,4-thiadiazol-5-yl]-2-methylpiperazine] it was 52%. Regarding `Cc1ccccc1N1CCN(c2nc(Cc3ccc(F)cc3)ns2)CC1` [Compound 185, 1-(2-methylphenyl)-4-[3-(4-fluorobenzyl)-1,2,4-thiadiazol-5-yl]piperazine], the EC50 stood at 0.38 µg/mL (≈ 1.03 µM) and the “%I” value was 114%. On the same counts, the results for `CCOc1ccccc1N1CCN(c2nc(Cc3ccc(F)cc3)ns2)CC1` [Compound 186, 1-(2-ethoxyphenyl)-4-[3-(4-fluorobenzyl)-1,2,4-thiadiazol-5-yl]piperazine] are 2.05 µg/mL (≈ 5.14 µM) and 94%. For the molecule `Fc1ccc(Cc2nsc(N3CCN(c4ccccc4F)CC3)n2)cc1` [Compound 187, 1-(2-fluorophenyl)-4-[3-(4-fluorobenzyl)-1,2,4-thiadiazol-5-yl]piperazine], the EC50 came to 2.81 µg/mL (≈ 7.54 µM) and the “%I” value was determined as 83%.

Regarding `Fc1ccc(Cc2nsc(N3CCN(c4cccc(C(F)(F)F)c4)CC3)n2)cc1` [Compound 188, 1-(3-trifluoromethylphenyl)-4-[3-(4-fluorobenzyl)-1,2,4-thiadiazol-5-yl]piperazine], the “%I” value came to 96%. As for `O=C(c1ccc(Cl)cc1)N1CCCN(c2nc(Cc3ccc(F)cc3)ns2)CC1` [Compound 189, 1-(4-chlorobenzoyl)-4-[3-(4-fluorobenzyl)-1,2,4-thiadiazol-5-yl]-1,4-diazepane], the concentration giving a half-maximal response (EC50) is 0.17 µg/mL (≈ 0.394 µM) and the “%I” value was determined as 85%. On the same counts, the results for `Cc1ccc(C(=O)N2CCCN(c3nc(Cc4ccc(F)cc4)ns3)CC2)cc1` [Compound 190, 1-(4-methylbenzoyl)-4-[3-(4-fluorobenzyt)-1,2,4-thiadiazol-5-yl]-1,4-diazepane] are 2.77 µg/mL (≈ 6.75 µM) and 87%. On to `O=C(c1ccc2c(c1)OCO2)N1CCCN(c2nc(Cc3ccc(F)cc3)ns2)CC1` [Compound 191, 1-(1,3-benzodioxol-5-ylcarbonyl)-4-[3-(4-fluorobenzyl)-1,2,4-thiadiazol-5-yl]-1,4-diazepane], for which the “%I” value is given as 63%. For `COc1ccc(S(=O)(=O)N2CCN(c3nc(Cc4cccc(F)c4)ns3)CC2)cc1` [Compound 193, 1-[4-methoxyphenylsulfonyl]-4-[3-(3-fluoro-benzyl)-1,2,4-thiadiazol-5-yl]piperazine], the EC50 came to 0.0048 µg/mL (≈ 0.0107 µM) and the “%I” value amounted to 68%. As to `COc1ccc(S(=O)(=O)N2CCN(c3nc(Cc4ccccc4F)ns3)CC2)cc1` [Compound 194, 1-[4-methoxyphenylsulfonyl]-4-[3-(2-fluoro-benzyl)-1,2,4-thiadiazol-5-yl]piperazine], the concentration giving a half-maximal response (EC50) amounted to 0.0012 µg/mL (≈ 0.00268 µM) and the “%I” value is recorded as 102%.

As for `COc1ccccc1S(=O)(=O)N1CCN(c2nc(Cc3ccc(F)cc3)ns2)CC1` [Compound 195, 1-[2-methoxyphenylsulfonyl]-4-[3-(4-fluoro-benzyl)-1,2,4-thiadiazol-5-yl]piperazine], the midpoint of the response, the EC50, lay at 0.025 µg/mL (≈ 0.0557 µM) and the “%I” value is listed as 99%. In the case of `CCOc1ccc(S(=O)(=O)N2CCN(c3nc(Cc4ccc(F)cc4)ns3)CC2)cc1` [Compound 196, 1-[4-ethoxyphenylsulfonyl]-4-[3-(4-fluoro-benzyl)-1,2,4-thiadiazol-5-yl]piperazine], it took 0.0081 µg/mL (≈ 0.0175 µM) to reach a half-maximal effect (EC50) and the “%I” value is 42%.

The values above are taken from patent EP1981504B1, “THIADIAZOLE DERIVATIVES FOR THE TREATMENT OF NEURO DEGENERATIVE DISEASES” (NV reMYND, priority 2006, dated 2007).
